# Source: patent US8575135B2 (Gilead Sciences, Inc., priority 2011, dated 2013)
# Where two headings read alike, the source gives them in different places.
# Tests used:
# Assay in all cases: microbe, parasite or virus in culture
# Details in all cases: Hepatitis C virus
# [1] = system: stable HCV 1a RLuc replicon cells (genotype 1a H77 replicon); assay type: cell-based
# Method: (§1) Evaluation of Cell-Based Anti-HCV Activity:
# (§2) Antiviral potency (EC50) was determined using a Renilla luciferase (RLuc)-based HCV replicon reporter assay. […] To perform the assay for genotype 2a (with M31 present in NS5A) or 2b, NS5A chimeric genotype 2a JFH-1 replicons that encodes a RLuc-Neo reporter and either genotype 2a J6 strain NS5A gene or genotype 2b MD2b-1 strain NS5A gene (both with M31 present) respectively, were either transiently transfected (t) into Huh-Lunet cells or were established as stably replicating replicon cells (s) is provided. Either cells were dispensed into 384-well plates for EC50 assays. To perform the assay for genotype 3 and 4, NS5A chimeric genotype 1b Con1 replicons that encodes a Pi-RLuc reporter and either genotype 3a S52 strain NS5A gene or genotype 4a ED43 strain NS5A gene respectively, were transiently transfected (t) into Huh-Lunet cells, which were subsequently dispensed into 384-well plates. Compounds were dissolved in DMSO at a concentration of 10 mM and diluted in DMSO either manually or using an automated pipeting instrument. Serially 3-fold diluted compounds were either manually mixed with cell culture media and added to the seeded cells or directly added to the cells using an automated instrument. […] 72 hours later, cells were lysed and Renilla luciferase activity quantified as recommended by the manufacturer (Promega-Madison, Wis.). Non-linear regression was performed to calculate EC50 values.
# [2] = system: stable HCV 2a JFH-1 Rluc replicon cells (L31 present in NS5A); assay type: cell-based
# [3] = system: NS5A chimeric genotype 1b Con1 replicon with genotype 4a ED43 strain NS5A gene; assay type: cell-based, HCV
# [4] = system: 1a Pi-Rluc replicon with Q30R in genotype 1a NS5A; assay type: cell-based, HCV
# Method: as §2
# To determine the antiviral potency (EC50) against resistance mutants, resistance mutations, including M28T, Q30R, Q30H, L31M, and Y93C in genotype 1a NS5A and Y93H in genotype 1b NS5A, were introduced individually into either 1a Pi-Rluc or 1b Pi-Rluc replicons by site directed mutagenesis. Replicon RNA of each resistant mutant was transiently transfected into Huh-7-derived cured-51 cells and antiviral potency was determined on these transfected cells as described above.
# [5] = system: NS5A chimeric genotype 2a JFH-1 replicon with genotype 2b MD2b-1 strain NS5A gene (M31 present); assay type: cell-based, HCV
# Method: as §1, §2
# [6] = system: NS5A chimeric genotype 2a JFH-1 replicon with genotype 2a J6 strain NS5A gene (M31 present); assay type: cell-based, HCV
# Method: as §1, §2
# [7] = system: NS5A chimeric genotype 1b Con1 replicon with genotype 3a S52 strain NS5A gene; assay type: cell-based, HCV
# Method: as §1, §2
Structure (SMILES),EC50 ([1]; read-out: 1a),EC50 ([1]; read-out: 1a (nM)),EC50 ([2]; read-out: 2a JFH),EC50 ([2]; read-out: 2a JFH (nM)),EC50 ([3]; read-out: 4a),EC50 ([3]; read-out: 4a (s) (nM)),EC50 ([3]; read-out: 4a (t) (nM)),EC50 ([4]; read-out: 1a Q30R),EC50 ([4]; read-out: 1a Q30R (nM)),EC50 ([5]; read-out: 2b),EC50 ([5]; read-out: 2b (s) (nM)),EC50 ([6]; read-out: 2a J6),EC50 ([6]; read-out: 2a J6 (s) (nM)),EC50 ([7]; read-out: 3a),EC50 ([7]; read-out: 3a (nM)),EC50 ([5]; read-out: 2b (t) (nM)),EC50 ([6]; read-out: 2a Jb (t) (nM))
COC(=O)N[C@H](C(=O)N1CCC[C@H]1c1nc2c([nH]1)-c1cc3c(cc1CC2)-c1ccc(-c2cnc([C@@H]4CCCN4C(=O)[C@H](NC(=O)C4CC4)c4ccccc4)[nH]2)cc1CO3)C(C)C [Compound 494],< 1 nM,0.037 nM,< 1 nM,0.005 nM,< 1 nM,0.031 nM,0.017 nM,< 1 nM,0.118 nM,< 1 nM,0.017 nM,< 1 nM,0.098 nM,< 1 nM,0.005 nM,,
COC[C@H]1C[C@@H](c2nc3ccc4cc5c(cc4c3[nH]2)OCc2cc(-c3cnc([C@@H]4CCCN4C(=O)[C@@H](NC(=O)OC)C(C)C)[nH]3)ccc2-5)N(C(=O)[C@@H](NC(=O)OC)C(C)C)C1 [Compound 495],< 1 nM,0.021 nM,< 1 nM,0.008 nM,< 1 nM,0.014 nM,0.014 nM,< 1 nM,0.201 nM,< 1 nM,0.541 nM,< 1 nM,1.02 nM,< 1 nM,0.024 nM,0.135 nM,0.28 nM
COC(=O)N[C@H](C(=O)N1CCC[C@H]1c1nc2ccc3cc4c(cc3c2[nH]1)OCc1cc(-c2cnc([C@@H]3CCCN3C(=O)[C@H](NC(=O)C3CC3)c3ccccc3)[nH]2)ccc1-4)C(C)C [Compound 498],< 1 nM,0.03 nM,< 1 nM,0.004 nM,< 1 nM,0.004 nM,0.011 nM,< 1 nM,0.04 nM,< 1 nM,0.013 nM,< 1 nM,0.039 nM,< 1 nM,0.005 nM,0.01 nM,0.012 nM
"COC[C@H]1C[C@@H](c2ncc(-c3ccc4c(c3)COc3cc5c(cc3-4)CCc3nc([C@@H]4CCCN4C(=O)[C@@H](NC(=O)OC)C(C)C)[nH]c3-5)[nH]2)N(C(=O)[C@H](NC(=O)OC)c2ccccc2)C1 [Example OK, Methyl {(1R)-2-[(2S,4S)-2-(5-{2-[(2S)-1-{(2S)-2-[(methoxycarbonyl)amino]-3-methylbutanoyl}pyrrolidin-2-yl]-1,4,5,11-tetrahydroisochromeno[4′,3′:6,7]naphtho[1,2-d]imidazol-9-yl}-1H-imidazol-2-yl)-4-(methoxymethyl)pyrrolidin-1-yl]-2-oxo-1-phenylethyl}carbamate]",< 1 nM,0.026 nM,< 1 nM,0.011 nM,,,,< 1 nM,0.039 nM,< 1 nM,0.045 nM,< 1 nM,,< 1 nM,0.028 nM,0.036 nM,0.076 nM
